Experimental data reported in patent publication US20220232835A1, “PLANT HEALTH EFFECT OF PURPUREOCILLIUM LILACINUM” (priority 2016, published 2022).

What was measured:
[1] = tested on: Southern Root Knot Nematode (Meloidogyne incognita); test: Drench test in tomato: nematicidal activity (percentage of gall reduction); format: in vivo; conditions: 10 mg per plant at transplanting; 3,000 Meloidogyne incognita per 100 cm^3 of soil
Protocol: (§1) To prepare a suitable dosage form the formulated product PL251 (liquid formulation of P. lilacinum comprising BREAK-THRU® S240 and AEROSIL®) is diluted with water to the desired concentration.
(§2) A quantity of 5,000 cm^3 of sandy loam soil, pH 6.8 per pot is mixed with 150,000 infective units (mixed population of eggs and juveniles) of the Southern Root Knot Nematode (Meloidogyne incognita). The desired concentration of Purpureocillium lilacinum strain 251 is drenched in 400 mL of solution (application A) to obtain 80% field capacity. Pots are incubated at 25° C. until transplanting of tomato seedlings (Lycopersicon lycopersicum) at 7 days after drench application A. At the day of transplanting a second drench application (application B) is carried out with 400 mL of solution.
(§3) After transplanting of tomato seedlings several post-plant application patterns are tested using 400 mL of solution per application (Table A).
(§4) In addition, 10 mg of the nematicide fluopyram (VELUM® PRIME, suspension concentrate SC 400) is applied at transplanting and used as a chemical reference. The non-treated control (UTC) is drenched with 400 mL of water at each application. […]
(§5) After the specified period the nematicidal activity is determined on the basis of the percentage of gall reduction. […] Moreover the shoot biomass is also determined to assess the overall plant health status. […]

[2] = tested on: tomato seedlings (Lycopersicon lycopersicum); test: Drench test in tomato: shoot biomass (plant health); format: in vivo; conditions: 10 mg fluopyram/plant at transplanting
Protocol: as §1, §2, §3, §4, §5

With `O=C(NCCc1ncc(C(F)(F)F)cc1Cl)c1ccccc1C(F)(F)F` [fluopyram] the “nematicidal activity (percentage of gall reduction)” value [1] was “excellent biocontrol activity” and the “shoot fresh weight vs UTC (ANOVA, Bonferroni)” value [2] was “significant improvement of shoot fresh weight”.
